Reference: patent US7084268B1, “Carbapenem compound crystals and interjection preparations” (Eisai Co., Ltd., priority 1999, dated 2006)
Where a name gives a salt, the structure may show the parent alone.

Experiments:
Format in all cases: physicochemical
[1] = Color difference after degasification of vial at various pressures and replacement by nitrogen; settings: 80° C./1 week, n = 6
Description: As the monohydrate, the powdery charged preparations for injection of the novel carbapenem crystals (25 mg/vial) obtained by degasification of the air in the vial at 100, 10, 1, 0.1 and 0.01 hPa (hectopascal) respectively and subsequent replacement by nitrogen according to the method in Example 2-3 (replacement by nitrogen) were stored at 60° C. for 1 or 4 weeks (N=6) and then measured for their color difference (ΔE). The oxygen concentrations in the preparations in vials degasified at 100, 10, 1, 0.1, 0.01 hPa (hectopascal) were measured by an oxygen analyzer (RO-101, Iizima Kogyo). As the trihydrate, the powdery charged preparations of the novel carbapenem hydrochloride crystals (25 mg/vial) obtained in the method in Example 1-9 (replacement by nitrogen) were degasified in the same manner, stored at 80° C. for 1 week (N=6) and then measured for their color difference (ΔE). As the control, the powdery charged preparation of the novel carbapenem hydrochloride crystals (25 mg/vial) subjected to neither degasification nor replacement by nitrogen was used.

[2] = Solubility in 62.5% (v/v) aqueous organic solvents, quantification in HPLC; settings: 20° C., 30 minutes, monohydrochloride trihydrate
Description: The solubility of (+)-(1R,5S,6S)-6-[(R)-1-hydroxyethyl]-1-methyl-2-[(2S,4S)-2-[(3R)-pyrrolidine-3-yl-(R)-hydroxymethyl]pyrrolidine-4-yl]thio-1-carbapen-2-em-3-carboxylic acid monohydrochloride monohydrate and trihydrate in various aqueous organic solvents at a concentration of 62.5% (v/v) in water at 20° C. was determined by HPLC in the following manner.

[3] = Storage of crystals in bottles without caps at various relative humidity, with or without oxygen absorbent; settings: 25° C., 2 weeks, listed as trihydrate crystals, monohydrochloride trihydrate
[4] = Effect of degasification of the air in a vial and/or replacement by nitrogen (storage of powdery charged preparations); settings: 25 mg/vial, storage at 40° C. for 1 month
Description: As the monohydrate crystals, the powdery charged preparation of the novel carbapenem hydrochloride crystals (25 mg/vial) obtained in the method in Example 2-3 (replacement by nitrogen), the powdery charged preparation (25 mg/vial) subjected to replacement by oxygen in place of replacement by nitrogen in Example 2-3, and the powdery charged preparation (25 mg/vial) not subjected to replacement in Example 2-2 were stored at 60° C. for 5 days (N=3) and then measured for their color difference (ΔE), water content, powdery x-ray diffraction pattern, content of residual carbapenem and HPLC impurities. As the trihydrate crystals, the powdery charged preparation of the novel carbapenem hydrochloride crystals (25 mg/vial) obtained by the method (replacement by nitrogen) in Example 1-9 and the powdery charged preparation (25 mg/vial) not subjected to replacement in Example 1-8 were stored at 40° C. for 1 month and then measured for their color difference (ΔE), water content and content of residual carbapenem. The color difference was evaluated by a color difference meter (ZE-200, Nippondenso Co., Ltd.); the water content by a Karl-Fisher moisture meter (CA-05, Mitsubishi Kagaku Kogyo); the powdery X-ray diffraction under the method and conditions in Example 1-1 or 2-1; and the content of residual carbapenem and HPLC impurities by high performance liquid chromatography (Shimadzu Corporation). The color difference (ΔE) is a parameter indicative of a change in the color of the outward appearance of crystals, and its higher value indicates a greater coloration change than at an initial stage (just after production).

[5] = Storage of crystals in bottles without caps at various relative humidity, with or without oxygen absorbent; settings: 25° C., 2 weeks; for water content (hygroscopicity): listed as trihydrate crystals, monohydrochloride trihydrate
Description: The novel carbapenem hydrochloride crystals were weighed in 25 mL wide-mouthed glass bottles (30 mg/bottle), and in the bottles without caps, the monohydrate was stored for 1 week at 40° C. at a relative humidity of 0%, 19.2%, 53% and 75%, and the trihydrate was stored for 2 weeks at 25° C. at a relative humidity of 11%, 33%, 51%, 75% and 93%. Then, the crystals were measured for their color difference (ΔE), water content, powdery X-ray diffraction pattern, and content of residual carbapenem. The monohydrate was also examined in the presence or absence of an oxygen absorbent (trade name: Ageless, produced by Mitsubishi Gas Chemical Co., Ltd.) during storage at each relative humidity. The oxygen absorbent makes oxygen-free conditions under which the preparation is placed.

With `C[C@@H](O)[C@H]1C(=O)N2C(C(=O)O)=C(S[C@@H]3CN[C@H]([C@H](O)[C@@H]4CCNC4)C3)[C@H](C)[C@H]12` [trihydrate, (+)-(1R,5S,6S)-6-[(R)-1-Hydroxyethyl]-1-methyl-2-[(2S,4S)-2-[(3R)-pyrrolidine-3-yl-(R)-hydroxymethyl]pyrrolidine-4-yl]thio-1-carbapen-2-em-3-carboxylic acid monohydrochloride trihydrate] the “color difference (ΔE)” value ([1]; control: neither degasification nor replacement by nitrogen) was 10.06, the “color difference (ΔE)” value ([1]; vial degasified at 1 hPa, replaced by nitrogen) was 3.62 and the “color difference (ΔE)” value ([1]; vial degasified at 10 hPa, replaced by nitrogen) was 3.92. The “color difference (ΔE)” value ([1]; vial degasified at 100 hPa, replaced by nitrogen) was 4.90, the solubility ([2]; 62.5% (v/v) 1-acetoxy-2-methyl ethane in water) was 2850 µg/mL and the solubility ([2]; 62.5% (v/v) 1-ethoxy-2-propanol in water) was 3320 µg/mL. It also gave a solubility ([2]; 62.5% (v/v) 1-methoxy-2-propanol in water) of 3370 µg/mL, a solubility ([2]; 62.5% (v/v) 2-butoxyethanol in water) of 11850 µg/mL and a solubility ([2]; 62.5% (v/v) 2-ethoxyethanol in water) of 4360 µg/mL. For the same molecule, the solubility ([2]; 62.5% (v/v) 2-isopropoxyethanol in water) was 4360 µg/mL, the solubility ([2]; 62.5% (v/v) 2-methoxyethanol in water) was 6390 µg/mL and the solubility ([2]; 62.5% (v/v) 3-methoxy-3-methyl-1-butanol in water) was 4860 µg/mL. The solubility ([2]; 62.5% (v/v) 3-methoxybutanol in water) was 3240 µg/mL, the solubility ([2]; 62.5% (v/v) IPA (isopropyl alcohol) in water) was 4740 µg/mL and the solubility ([2]; 62.5% (v/v) acetonitrile in water) was 12990 µg/mL. For the same molecule, the solubility ([2]; 62.5% (v/v) diethylene glycol monoethyl ether in water) was 2680 µg/mL, the solubility ([2]; 62.5% (v/v) diethylene glycol monomethyl ether in water) was 2410 µg/mL and the solubility ([2]; 62.5% (v/v) dimethyl acetamide in water) was 4530 µg/mL. For the same molecule, the solubility ([2]; 62.5% (v/v) dimethyl ether in water) was 1440 µg/mL, the solubility ([2]; 62.5% (v/v) dimethyl formamide in water) was 7310 µg/mL and the solubility ([2]; 62.5% (v/v) dimethyl sulfoxide in water) was 11840 µg/mL. It also gave a solubility ([2]; 62.5% (v/v) ethanol in water) of 6320 µg/mL, a solubility ([2]; 62.5% (v/v) methanol in water) of 14380 µg/mL and a solubility ([2]; 62.5% (v/v) n-propanol in water) of 10460 µg/mL. The solubility ([2]; 62.5% (v/v) t-butanol in water) was 6060 µg/mL, the solubility ([2]; 62.5% (v/v) tetrahydrofuran in water) was 5290 µg/mL and the solubility ([2]; 62.5% (v/v) triethylene glycol monomethyl ether in water) was 2470 µg/mL. The “water content (hygroscopicity)” value ([3]; relative humidity 11%) was 11.0%, the “water content (hygroscopicity)” value ([3]; relative humidity 75%) was 11.1% and the “water content (hygroscopicity)” value ([3]; relative humidity 93%) was 11.4%. The “color difference (ΔE)” value ([4]; control (air)) was 2.78, the “content of residual carbapenem compound” value ([4]; control (air)) was 101.0% and the water content ([4]; control (air)) was 12.0%. The “color difference (ΔE)” value ([4]; gas for replacement nitrogen) was 0.00, the “content of residual carbapenem compound” value ([4]; gas for replacement nitrogen) was 100.2% and the water content ([4]; gas for replacement nitrogen) was 11.3%. The “powdery X-ray diffraction pattern (hygroscopicity)” value (from here on “powdery X-ray diffraction pattern”) ([5]; relative humidity 11%) was “no change”, the “powdery X-ray diffraction pattern” value ([5]; relative humidity 33%) was “no change” and the “water content (hygroscopicity)” value ([5]; relative humidity 33%) was 11.1%. The “powdery X-ray diffraction pattern” value ([5]; relative humidity 51%) was “no change”, the “water content (hygroscopicity)” value ([5]; relative humidity 51%) was 11.1% and the “powdery X-ray diffraction pattern” value ([5]; relative humidity 75%) was “no change”. For the same molecule, the “powdery X-ray diffraction pattern” value ([5]; relative humidity 93%) was “no change”.
